In this test the test system is L1210 leukemia ip in BDF1 mice, survival T/C. The test is described as follows: NCI In Vivo Anticancer Drug Screen. Data for tumor model L1210 Leukemia (intraperitoneal) in B6D2F1 (BDF1) mice. As to conditions: endpoint: mean survival time, higher = longer survival. The method in brief:
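Mice bearing the transplanted tumor received compound or vehicle. Survival of the treated group was divided by that of the vehicle-treated control group to give the ratio.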

The mark [1] stands for this setting: dose: 100.0 mg/kg/injection, schedule: Q01DX009 (ip), vehicle: saline with Tween-80.
Where [2] appears, read: dose: 200.0 mg/kg/injection, schedule: Q01DX009 (ip), vehicle: saline with Tween-80.
[3] abbreviates: dose: 400.0 mg/kg/injection, schedule: Q01DX009 (ip), vehicle: saline with Tween-80.
Setting [4] is: dose: 50.0 mg/kg/injection, schedule: Q01DX009 (ip), vehicle: Klucel (hydroxypropylcellulose) (HPC).
[5] abbreviates: dose: 100.0 mg/kg/injection, schedule: Q01DX009 (ip), vehicle: Klucel (hydroxypropylcellulose) (HPC).
[6] abbreviates: dose: 100.0 mg/kg/injection, schedule: Q04DX003 (ip), vehicle: Klucel (hydroxypropylcellulose) (HPC).
[7] abbreviates: dose: 200.0 mg/kg/injection, schedule: Q04DX003 (ip), vehicle: Klucel (hydroxypropylcellulose) (HPC).
[8] abbreviates: dose: 100.0 mg/kg/injection, schedule: Q04DX003 (ip), vehicle: saline.
[9] abbreviates: dose: 200.0 mg/kg/injection, schedule: Q04DX003 (ip), vehicle: saline.
Where [10] appears, read: dose: 400.0 mg/kg/injection, schedule: Q04DX003 (ip), vehicle: saline.
[11] abbreviates: dose: 200.0 mg/kg/injection, schedule: Q01DX009 (ip), vehicle: Klucel (hydroxypropylcellulose) (HPC).
[12] abbreviates: dose: 400.0 mg/kg/injection, schedule: Q01DX009 (ip), vehicle: Klucel (hydroxypropylcellulose) (HPC).
The mark [13] stands for this setting: dose: 400.0 mg/kg/injection, schedule: Q04DX003 (ip), vehicle: Klucel (hydroxypropylcellulose) (HPC).
Where [14] appears, read: dose: 100.0 mg/kg/injection, schedule: Q04DX002 (ip), vehicle: saline with Tween-80.
[15] abbreviates: dose: 200.0 mg/kg/injection, schedule: Q04DX002 (ip), vehicle: saline with Tween-80.
Setting [16] is: dose: 400.0 mg/kg/injection, schedule: Q04DX002 (ip), vehicle: saline with Tween-80.
The mark [17] stands for this setting: dose: 100.0 mg/kg/injection, schedule: Q01DX009 (ip), vehicle: saline.
The mark [18] stands for this setting: dose: 200.0 mg/kg/injection, schedule: Q01DX009 (ip), vehicle: saline.

Where “and” joins values, the source holds several entries; their conditions need not be identical. Identical values can stand only once. Toxic doses and inconclusive results are not listed. Square brackets hold non-standard residues; d marks the D form. Peptide text beside a SMILES is read from it. * marks the point of attachment. ξ: configuration not given here. Boc = CC(C)(C)OC(=O)*; ξP = O=C(O)C1CCCN1

Turning to `COC(=O)CNC(=O)C1CCCN1C(=O)OC(C)(C)C` (stereo not given) (Boc-[ξP]-Gly-OMe), the T/C is 100 % of control under setting [1], 100 % of control under setting [2] and 90 % of control under setting [3].
As for `CC(NC(C)c1ccccc1)c1ccccc1` (stereo not given), the T/C is 102 % of control under setting [4], 106 % of control under setting [5], 104 % of control under setting [6] and 100 % of control under setting [7].
`O=C(O)c1cccc(F)c1C(=O)c1ccc2ccccc2c1` (tested in a mixture with another compound): the T/C reads like this: under setting [6], 105 % of control; under setting [7], 86 % of control.
`O=C(C(Br)C(Br)c1ccccc1)N1CCOCC1` (stereo not given): the T/C reads like this: (dose: 100.0 mg/kg/injection, schedule: Q01DX009 (ip), vehicle: saline sonified) 108 % of control; under setting [8], 109 % of control; (dose: 200.0 mg/kg/injection, schedule: Q01DX009 (ip), vehicle: saline sonified) 101 % of control; under setting [9], 100 % of control; (dose: 400.0 mg/kg/injection, schedule: Q01DX009 (ip), vehicle: saline sonified) 95 % of control; under setting [10], 98 % of control.
On to `CCCCCCNC(=O)COc1ccc(Cl)cc1`, for which the T/C (dose: 100.0 mg/kg/injection, schedule: Q04DX002 (ip), vehicle: Klucel (hydroxypropylcellulose) (HPC)) is 97 % of control; the T/C (dose: 200.0 mg/kg/injection, schedule: Q04DX002 (ip), vehicle: Klucel (hydroxypropylcellulose) (HPC)) was 93 % of control; the T/C (dose: 400.0 mg/kg/injection, schedule: Q04DX002 (ip), vehicle: Klucel (hydroxypropylcellulose) (HPC)) was 101 % of control.
Consider `OC(c1ccccc1)c1cccc(Br)c1` (stereo not given), for which the T/C runs as follows: (dose: 100.0 mg/kg/injection, schedule: Q01DX009 (ip), vehicle: acetone) 104 % of control; under setting [8], 96 % of control; (dose: 200.0 mg/kg/injection, schedule: Q01DX009 (ip), vehicle: acetone) 107 % of control; under setting [9], 105 % of control; (dose: 400.0 mg/kg/injection, schedule: Q01DX009 (ip), vehicle: acetone) 100 % of control; under setting [10], 89 % of control.
Regarding `O=C(Nc1ccccc1F)OCC1CC2C=CC1C2` (stereo not given), the T/C under setting [5] was 101 % of control, the T/C under setting [11] was 104 % of control and the T/C under setting [12] was 93 % of control.
Take `CCCCC(=O)c1ccc(F)cc1`: the T/C by setting is: under setting [5], 96 % of control; under setting [6], 105 % of control; under setting [11], 98 % of control; under setting [7], 93 % of control; under setting [12], 98 % of control; under setting [13], 100 % of control.
As to `CC(C)(O)C1CC1`, the T/C by setting is: (dose: 100.0 mg/kg/injection, schedule: Q01DX005 (ip), vehicle: saline with Tween-80) 97 % of control; under setting [1], 88 % of control; under setting [14], 101 % of control; (dose: 200.0 mg/kg/injection, schedule: Q01DX005 (ip), vehicle: saline with Tween-80) 94 % of control; under setting [2], 94 % of control; under setting [15], 108 % of control. For the same compound, the T/C runs as follows: (dose: 400.0 mg/kg/injection, schedule: Q01DX005 (ip), vehicle: saline with Tween-80) 101 % of control; under setting [3], 91 % of control; under setting [16], 96 % of control.
As for `CCCCN(CCCC)CCCNC(=O)OCC`, the T/C was 92 % of control (dose: 25.0 mg/kg/injection, schedule: Q01DX009 (ip), vehicle: Klucel (hydroxypropylcellulose) (HPC)); 94 % of control under setting [4]; 100 % of control (dose: 50.0 mg/kg/injection, schedule: Q04DX003 (ip), vehicle: Klucel (hydroxypropylcellulose) (HPC)); 106 % of control and 87 % of control under setting [5]; 103 % of control under setting [6].
Regarding `NS(=O)(=O)c1ccc(N=Nc2ncc(CC(NC3=CC(=O)C(=O)c4ccccc43)C(=O)O)[nH]2)cc1` (stereo not given), the T/C (dose: 50.0 mg/kg/injection, schedule: Q01DX009 (ip), vehicle: saline) is 96 % of control; the T/C under setting [17] is 96 % of control; the T/C under setting [18] was 105 % of control.
On to `Cc1cc2c(c(Cl)n1)C(=O)OC2=O`, for which the T/C is, setting by setting: (dose: 75.0 mg/kg/injection, schedule: Q01DX001 (ip), vehicle: other) 95 % of control; (dose: 150.0 mg/kg/injection, schedule: Q01DX001 (ip), vehicle: other) 95 % of control; (dose: 300.0 mg/kg/injection, schedule: Q01DX001 (ip), vehicle: other) 103 % of control.
For `CCCN=C(N)C(N)=NCCC`, the T/C is, setting by setting: under setting [17], 91 % of control; under setting [8], 98 % of control; under setting [18], 92 % of control; under setting [9], 98 % of control; under setting [10], 91 % of control.
As to `CC(C)(C)NCC1CCCC1`, the T/C runs as follows: (dose: 20.0 mg/kg/injection, schedule: Q04DX003 (ip), vehicle: saline) 109 % of control; (dose: 40.0 mg/kg/injection, schedule: Q04DX003 (ip), vehicle: saline) 115 % of control; (dose: 80.0 mg/kg/injection, schedule: Q04DX003 (ip), vehicle: saline) 111 % of control.
As for `O=P1(NCCCl)OCCC(OO)N1CCCl` (stereo not given), the T/C was 155 % of control (dose: 15.0 mg/kg/injection, schedule: Q01DX001 (ip), vehicle: Klucel (hydroxypropylcellulose) (HPC)); 158 % of control (dose: 23.0 mg/kg/injection, schedule: Q01DX001 (ip), vehicle: Klucel (hydroxypropylcellulose) (HPC)); 175 % of control (dose: 34.0 mg/kg/injection, schedule: Q01DX001 (ip), vehicle: Klucel (hydroxypropylcellulose) (HPC)); 188 % of control and 196 % of control (dose: 50.0 mg/kg/injection, schedule: Q01DX001 (ip), vehicle: Klucel (hydroxypropylcellulose) (HPC)); 276 % of control (dose: 75.0 mg/kg/injection, schedule: Q01DX001 (ip), vehicle: Klucel (hydroxypropylcellulose) (HPC)); 182 % of control (dose: 100.0 mg/kg/injection, schedule: Q01DX001 (ip), vehicle: Klucel (hydroxypropylcellulose) (HPC)). Besides, the T/C by setting is: (dose: 200.0 mg/kg/injection, schedule: Q01DX001 (ip), vehicle: Klucel (hydroxypropylcellulose) (HPC)) 196 % of control; (dose: 400.0 mg/kg/injection, schedule: Q01DX001 (ip), vehicle: Klucel (hydroxypropylcellulose) (HPC)) 95 % of control.
As for `Nc1ccccc1Sc1ccc(C(=O)O)cc1[N+](=O)[O-]`, the T/C by setting is: under setting [6], 104 % of control; under setting [7], 96 % of control; under setting [13], 100 % of control.
As for `CC1(C)OC2COC(c3[nH]nc(C(N)=O)c3Br)C2O1` (stereo not given), the T/C was 104 % of control (dose: 100.0 mg/kg/injection, schedule: Q01DX005 (ip), vehicle: saline) and 96 % of control (dose: 200.0 mg/kg/injection, schedule: Q01DX005 (ip), vehicle: saline).
Take `CC(=O)Nc1snc(C)c1[N+](=O)[O-]`: the T/C is, setting by setting: (dose: 100.0 mg/kg/injection, schedule: Q01DX001 (ip), vehicle: saline) 107 % of control; (dose: 200.0 mg/kg/injection, schedule: Q01DX001 (ip), vehicle: saline) 103 % of control; (dose: 400.0 mg/kg/injection, schedule: Q01DX001 (ip), vehicle: saline) 103 % of control.
Take `CCOP(=O)(OCC)C(c1ccccc1)(c1ccccc1)c1ccccc1`: the T/C runs as follows: under setting [14], 90 % of control; under setting [15], 90 % of control; under setting [16], 90 % of control.

The record behind these values is PubChem BioAssay AID248 (DTP/NCI, 2004).
